PubChem BioAssay AID2060627 (Molecular Pharmacology Branch, DTP, NCI, 2025)

System: 156681-154-R-J1-PDC complex spheroid viability
Experiment: Anticancer human tumor 156681-154-R-J1-PDC patient-derived melanoma cell line growth inhibition [CLK]
Settings: curve of first compound; second compound 10 µM
Method in brief: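 Multi-cell-type spheroids combined patient-derived tumor cells with HUVEC endothelial cells and human mesenchymal stem cells. Paired agents were dosed in half-log steps down from about clinical Cmax, or from 10 microM where Cmax was unknown.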
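Also: spheroids exposed to the agents for seven days.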
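For viability, T/C in this document: 100% = DMSO vehicle control viability.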

Structure (SMILES)	IC50 [nM]
CC(CO)NC(=O)c1cc(-c2ccc(Cl)cc2)nn(-c2cnn(C)c2)c1=O (stereo unspecified) + CNC(=O)c1ccc(Nc2nc(OC3CCCC3)c3c(-c4ccc5nc(C)oc5c4)c[nH]c3n2)c(OC)c1	< 31.6
Nc1ccn(C2OC(CO)C(O)C2(F)F)c(=O)n1 (stereo unspecified) + CN1CCN(c2cc(C(=O)Nc3cc4cc(-c5cnn(C)c5)ccc4cn3)ccn2)CC1	< 31.6
COc1ccc([C@@H](O)c2cc(-c3ncnc4cc(N5CCOCC5)ccc34)c(F)cc2Cl)nn1 + CNC(=O)c1ccc(Nc2nc(OC3CCCC3)c3c(-c4ccc5nc(C)oc5c4)c[nH]c3n2)c(OC)c1	< 31.6
COC1C=CCC(C)C(C)S(=O)(=O)NC(=O)c2ccc3c(c2)N(CC2CCC21)CC1(CCCc2cc(Cl)ccc21)CO3 (stereo unspecified) + CN1CCN(c2cc(C(=O)Nc3cc4cc(-c5cnn(C)c5)ccc4cn3)ccn2)CC1	< 31.6

Same assay, conditions: second compound 0.0316 µM; first compound 0.00316 µM; stronger effect = lower value

Structure (SMILES)	viability, T/C [%]
CCc1c2c(nc3ccc(O)cc13)-c1cc3c(c(=O)n1C2)COC(=O)[C@]3(O)CC + CNC(=O)c1ccc(Nc2nc(OC3CCCC3)c3c(-c4ccc5nc(C)oc5c4)c[nH]c3n2)c(OC)c1	27.7

Same assay, conditions: second compound 0.0316 µM; first compound 0.01 µM; stronger effect = lower value

Structure (SMILES)	viability, T/C [%]
CCc1c2c(nc3ccc(O)cc13)-c1cc3c(c(=O)n1C2)COC(=O)[C@]3(O)CC + CNC(=O)c1ccc(Nc2nc(OC3CCCC3)c3c(-c4ccc5nc(C)oc5c4)c[nH]c3n2)c(OC)c1	15

Same assay, conditions: second compound 0.0316 µM; first compound 0.0316 µM; stronger effect = lower value

Structure (SMILES)	viability, T/C [%]
CCc1c2c(nc3ccc(O)cc13)-c1cc3c(c(=O)n1C2)COC(=O)[C@]3(O)CC + CNC(=O)c1ccc(Nc2nc(OC3CCCC3)c3c(-c4ccc5nc(C)oc5c4)c[nH]c3n2)c(OC)c1	18
CC(CO)NC(=O)c1cc(-c2ccc(Cl)cc2)nn(-c2cnn(C)c2)c1=O (stereo unspecified) + CNC(=O)c1ccc(Nc2nc(OC3CCCC3)c3c(-c4ccc5nc(C)oc5c4)c[nH]c3n2)c(OC)c1	83.5
Nc1ccn(C2OC(CO)C(O)C2(F)F)c(=O)n1 (stereo unspecified) + CN1CCN(c2cc(C(=O)Nc3cc4cc(-c5cnn(C)c5)ccc4cn3)ccn2)CC1	16.4
COc1ccc([C@@H](O)c2cc(-c3ncnc4cc(N5CCOCC5)ccc34)c(F)cc2Cl)nn1 + CNC(=O)c1ccc(Nc2nc(OC3CCCC3)c3c(-c4ccc5nc(C)oc5c4)c[nH]c3n2)c(OC)c1	80.7
COC1C=CCC(C)C(C)S(=O)(=O)NC(=O)c2ccc3c(c2)N(CC2CCC21)CC1(CCCc2cc(Cl)ccc21)CO3 (stereo unspecified) + CN1CCN(c2cc(C(=O)Nc3cc4cc(-c5cnn(C)c5)ccc4cn3)ccn2)CC1	111

Same assay, conditions: second compound 0.0316 µM; first compound 0.1 µM; stronger effect = lower value

Structure (SMILES)	viability, T/C [%]
CCc1c2c(nc3ccc(O)cc13)-c1cc3c(c(=O)n1C2)COC(=O)[C@]3(O)CC + CNC(=O)c1ccc(Nc2nc(OC3CCCC3)c3c(-c4ccc5nc(C)oc5c4)c[nH]c3n2)c(OC)c1	19.4
CC(CO)NC(=O)c1cc(-c2ccc(Cl)cc2)nn(-c2cnn(C)c2)c1=O (stereo unspecified) + CNC(=O)c1ccc(Nc2nc(OC3CCCC3)c3c(-c4ccc5nc(C)oc5c4)c[nH]c3n2)c(OC)c1	107
Nc1ccn(C2OC(CO)C(O)C2(F)F)c(=O)n1 (stereo unspecified) + CN1CCN(c2cc(C(=O)Nc3cc4cc(-c5cnn(C)c5)ccc4cn3)ccn2)CC1	16.1
COc1ccc([C@@H](O)c2cc(-c3ncnc4cc(N5CCOCC5)ccc34)c(F)cc2Cl)nn1 + CNC(=O)c1ccc(Nc2nc(OC3CCCC3)c3c(-c4ccc5nc(C)oc5c4)c[nH]c3n2)c(OC)c1	97.2
COC1C=CCC(C)C(C)S(=O)(=O)NC(=O)c2ccc3c(c2)N(CC2CCC21)CC1(CCCc2cc(Cl)ccc21)CO3 (stereo unspecified) + CN1CCN(c2cc(C(=O)Nc3cc4cc(-c5cnn(C)c5)ccc4cn3)ccn2)CC1	83.4

Same assay, conditions: second compound 0.0316 µM; first compound 0.316 µM; stronger effect = lower value

Structure (SMILES)	viability, T/C [%]
CCc1c2c(nc3ccc(O)cc13)-c1cc3c(c(=O)n1C2)COC(=O)[C@]3(O)CC + CNC(=O)c1ccc(Nc2nc(OC3CCCC3)c3c(-c4ccc5nc(C)oc5c4)c[nH]c3n2)c(OC)c1	16.6
CC(CO)NC(=O)c1cc(-c2ccc(Cl)cc2)nn(-c2cnn(C)c2)c1=O (stereo unspecified) + CNC(=O)c1ccc(Nc2nc(OC3CCCC3)c3c(-c4ccc5nc(C)oc5c4)c[nH]c3n2)c(OC)c1	122
Nc1ccn(C2OC(CO)C(O)C2(F)F)c(=O)n1 (stereo unspecified) + CN1CCN(c2cc(C(=O)Nc3cc4cc(-c5cnn(C)c5)ccc4cn3)ccn2)CC1	20.3
COc1ccc([C@@H](O)c2cc(-c3ncnc4cc(N5CCOCC5)ccc34)c(F)cc2Cl)nn1 + CNC(=O)c1ccc(Nc2nc(OC3CCCC3)c3c(-c4ccc5nc(C)oc5c4)c[nH]c3n2)c(OC)c1	87.8
COC1C=CCC(C)C(C)S(=O)(=O)NC(=O)c2ccc3c(c2)N(CC2CCC21)CC1(CCCc2cc(Cl)ccc21)CO3 (stereo unspecified) + CN1CCN(c2cc(C(=O)Nc3cc4cc(-c5cnn(C)c5)ccc4cn3)ccn2)CC1	86.8

Same assay, conditions: second compound 0.0316 µM; first compound 1 µM; stronger effect = lower value

Structure (SMILES)	viability, T/C [%]
CCc1c2c(nc3ccc(O)cc13)-c1cc3c(c(=O)n1C2)COC(=O)[C@]3(O)CC + CNC(=O)c1ccc(Nc2nc(OC3CCCC3)c3c(-c4ccc5nc(C)oc5c4)c[nH]c3n2)c(OC)c1	4.47
CC(CO)NC(=O)c1cc(-c2ccc(Cl)cc2)nn(-c2cnn(C)c2)c1=O (stereo unspecified) + CNC(=O)c1ccc(Nc2nc(OC3CCCC3)c3c(-c4ccc5nc(C)oc5c4)c[nH]c3n2)c(OC)c1	101
Nc1ccn(C2OC(CO)C(O)C2(F)F)c(=O)n1 (stereo unspecified) + CN1CCN(c2cc(C(=O)Nc3cc4cc(-c5cnn(C)c5)ccc4cn3)ccn2)CC1	14.8
COc1ccc([C@@H](O)c2cc(-c3ncnc4cc(N5CCOCC5)ccc34)c(F)cc2Cl)nn1 + CNC(=O)c1ccc(Nc2nc(OC3CCCC3)c3c(-c4ccc5nc(C)oc5c4)c[nH]c3n2)c(OC)c1	69.8
COC1C=CCC(C)C(C)S(=O)(=O)NC(=O)c2ccc3c(c2)N(CC2CCC21)CC1(CCCc2cc(Cl)ccc21)CO3 (stereo unspecified) + CN1CCN(c2cc(C(=O)Nc3cc4cc(-c5cnn(C)c5)ccc4cn3)ccn2)CC1	75.4
